Assay results as given in paper PMC6921279 (Frontiers in Endocrinology, 2019).
Blank lines part the entries; values can stand above or below the compound they belong to.

Key:
[1] = tested on: CRF1R-mediated Akt phosphorylation; assay: CRF-induced Akt phosphorylation at Ser473 in COS-7 cells expressing HA-CRF1R; type: cell-based, human; settings: 100 nM CRF, 5 min
Experimental: (§1) Plasmid pRK5 encoding the carboxyl terminus of βARK that contains its βγ-binding domain (ct-βARK) was kindly provided by Dr. W. Koch (Center for Translational Medicine, Temple University, Philadelphia, PA), which is a scavenger for G protein βγ subunits ([25]). […] Plasmid pUSEamp encoding dominant-negative Akt-K179M (dn-Akt) was from Upstate Biotechnology (Lake Placid, NY).
(§2) COS-7 cells (from the American Type Culture Collection) were cultured at 37°C in a humidified atmosphere of 95% air, 5% CO2, in DMEM supplemented with 10% FBS, 100 μg/ml streptomycin, and 100 units/ml penicillin (COS-7 growth medium). Transient transfections were performed using LipofectAMINE (Life Technologies: Gaithersburg, MD) as described previously ([27]). Cells were seeded at 8 × 10^5 cells/10-cm dish in COS-7 medium and cultured for 3 days before transfection. COS-7 cells were transfected in 5 ml/dish OptiMEM containing 10 μg/ml LipofectAMINE with empty vector, pcDNA3 encoding the HA-CRF1R or the HA-CRF1R-Δ386 mutant. […] After replacing the transfection medium with fresh growth medium, transfected COS-7 cells were cultured for 1 day. Subsequently, cells were re-seeded in 6-well plates and cultured for an additional day prior to the experiment.
The protocols for measuring total and phosphorylated ERK1/2, c-Src, PYK2, Akt, and EGFR have been previously published ([28], [29]). After cells were cultured to 60–70% confluence, they were serum-deprived for 24 h. On the day of the experiment, cells were treated with the indicated ligands and inhibitors. […] After treatment, cells were placed on ice, the media was aspirated, and the cells were washed twice with ice-cold PBS and lysed in 100 μl of Laemmli sample buffer 1X. The lysates were briefly sonicated, heated at 95°C for 5 min, and centrifuged for 5 min at 14,000 rpm. Resulting supernatants were loaded in separate lanes of a 10% SDS-PAGE gels and electrophoresed. Next, Western transfer on to PDVF membranes was completed. The Western blots were then probed with specific antibodies targeting phosphorylated and non-phosphorylated forms of ERK1/2, c-Src, PYK2, Akt, and EGFR for primary immunodetection. […] The labeled bands were quantified using the Quantity One 4.6.3 software program (Bio-Rad).
Figure 7 CRF mediates Akt activation. […] Total cell lysates were separated by SDS-PAGE and analyzed by immunoblotting with anti-p-Akt Ser^473, as described in Materials and Methods. Akt phosphorylation was quantitated by densitometry, and mean values were plotted from three to five independent experiments. […]

[2] = tested on: CRF1R-mediated ERK1/2 phosphorylation; assay: Modulation of CRF-stimulated ERK1/2 phosphorylation in COS-7 cells expressing HA-CRF1R; type: cell-based
Experimental: as §1, §2
The protocols for measuring total and phosphorylated ERK1/2, c-Src, PYK2, Akt, and EGFR have been previously published ([28], [29]). After cells were cultured to 60–70% confluence, they were serum-deprived for 24 h. On the day of the experiment, cells were treated with the indicated ligands and inhibitors. […] After treatment, cells were placed on ice, the media was aspirated, and the cells were washed twice with ice-cold PBS and lysed in 100 μl of Laemmli sample buffer 1X. The lysates were briefly sonicated, heated at 95°C for 5 min, and centrifuged for 5 min at 14,000 rpm. Resulting supernatants were loaded in separate lanes of a 10% SDS-PAGE gels and electrophoresed. Next, Western transfer on to PDVF membranes was completed. The Western blots were then probed with specific antibodies targeting phosphorylated and non-phosphorylated forms of ERK1/2, c-Src, PYK2, Akt, and EGFR for primary immunodetection. After blots were probed with horseradish peroxidase-conjugated secondary antibody, protein bands were visualized with enhanced chemiluminescence ECL reagent (Amersham Pharmacia Biotech, Piscataway, NJ or Pierce Biotechnology, Rockford, IL) and scanned using the GS-800 Calibrated Imaging Densitometer (Bio-Rad). The labeled bands were quantified using the Quantity One 4.6.3 software program (Bio-Rad).
(§3) Total cell lysates were separated by SDS-PAGE and analyzed by immunoblotting with anti-p-ERK1/2 Thr^202/Tyr^204, as described in Materials and Methods. ERK1/2 phosphorylation was quantitated by densitometry, and mean values were plotted from five independent experiments.
(§4) Total cell lysates were separated by SDS-PAGE and analyzed by immunoblotting with anti-p-ERK1/2 Thr^202/Tyr^204 (A–D) or anti-p-EGFR Tyr^1068 (E), as described in Materials and Methods. ERK1/2 and EGFR phosphorylation were quantitated by densitometry, and mean values were plotted from three to five independent experiments.
Total cell lysates were separated by SDS-PAGE and analyzed by immunoblotting with anti-p-ERK1/2 Thr^202/Tyr^204, as described in Materials and Methods. ERK1/2 phosphorylation was quantitated by densitometry, and mean values were plotted from three to five independent experiments.

[3] = tested on: EGF-stimulated ERK1/2 phosphorylation; assay: Modulation of EGF-stimulated ERK1/2 phosphorylation in COS-7 cells; type: cell-based; settings: GM6001 10 μM, 30 min pretreatment; 10 ng/ml EGF, 10 min
Experimental: as §2, with “Subsequently, cells were re-seeded in 6-well plates and cultured for an additional day prior to the experiment.” left out
(§5) The protocols for measuring total and phosphorylated ERK1/2, c-Src, PYK2, Akt, and EGFR have been previously published ([28], [29]). […] The labeled bands were quantified using the Quantity One 4.6.3 software program (Bio-Rad).
as §4, with “Figure 3 Involvement of EGFR transactivation in CRF-stimulated ERK1/2 phosphorylation. […] Total” for “Total”, “experiments. […]” for “experiments.”

[4] = tested on: PMA-stimulated ERK1/2 phosphorylation; assay: Modulation of PMA-stimulated ERK1/2 phosphorylation in COS-7 cells; type: cell-based; settings: GM6001 10 μM, 30 min pretreatment; 100 nM PMA, 15 min
Experimental: COS-7 cells (from the American Type Culture Collection) were cultured at 37°C in a humidified atmosphere of 95% air, 5% CO2, in DMEM supplemented with 10% FBS, 100 μg/ml streptomycin, and 100 units/ml penicillin (COS-7 growth medium). Transient transfections were performed using LipofectAMINE (Life Technologies: Gaithersburg, MD) as described previously ([27]). Cells were seeded at 8 × 10^5 cells/10-cm dish in COS-7 medium and cultured for 3 days before transfection. COS-7 cells were transfected in 5 ml/dish OptiMEM containing 10 μg/ml LipofectAMINE with empty vector, pcDNA3 encoding the HA-CRF1R or the HA-CRF1R-Δ386 mutant. […]
as §5
as §3, with “Figure 2 CRF-induced ERK1/2 phosphorylation is dependent on Gi protein. […] Total” for “Total”, “experiments. […]” for “experiments.”
Total cell lysates were separated by SDS-PAGE and analyzed by immunoblotting with anti-p-ERK1/2 Thr202/Tyr204, as described in materials and methods. […]

[5] = tested on: endogenous EGFR in COS-7 cells; assay: EGF-stimulated ERK1/2 phosphorylation in COS-7 cells expressing HA-CRF1R; type: cell-based
Experimental: COS-7 cells (from the American Type Culture Collection) were cultured at 37°C in a humidified atmosphere of 95% air, 5% CO2, in DMEM supplemented with 10% FBS, 100 μg/ml streptomycin, and 100 units/ml penicillin (COS-7 growth medium). Transient transfections were performed using LipofectAMINE (Life Technologies: Gaithersburg, MD) as described previously ([27]). Cells were seeded at 8 × 10^5 cells/10-cm dish in COS-7 medium and cultured for 3 days before transfection. COS-7 cells were transfected in 5 ml/dish OptiMEM containing 10 μg/ml LipofectAMINE with empty vector, pcDNA3 encoding the HA-CRF1R or the HA-CRF1R-Δ386 mutant. […] After replacing the transfection medium with fresh growth medium, transfected COS-7 cells were cultured for 1 day. […]
as §5, §4

[6] = molecular target: HA-epitope tagged human CRF1 receptor (human); assay: co-IP; HA-CRF1R immunoprecipitated with anti-HA monoclonal antibody (HA.11) and protein A/G PLUS-Agarose from 1% Nonidet P-40 lysates (50 mM Tris-HCl, 150 mM NaCl, pH 7.4) of transfected COS-7 cells, serum-deprived 24 h, untreated or treated with 100 nM CRF for 10 min at 37°C; blots probed for EGFR and HA, stripped and reprobed for c-Src; densitometry
[7] = molecular target: epidermal growth factor receptor (African green monkey (endogenous in COS-7))

Chain of epidermal growth factor (P01133 971-1023): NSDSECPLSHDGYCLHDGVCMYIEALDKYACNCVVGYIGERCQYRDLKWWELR

IC50 ([2]; COS-7, AG1478 0–1,000 nM, 30 min pretreatment, 100 nM CRF, 5 min, read-out: IC50, inhibition of CRF-stimulated ERK1/2 phosphorylation): 10 nM
Compound: COc1cc2ncnc(Nc3cccc(Cl)c3)c2cc1OC [AG1478]
decrease of CRF-stimulated Akt phosphorylation ([1]; AG1478 100 nM): 25% | effect on CRF-stimulated ERK1/2 phosphorylation ([2]; AG1478 100 nM, 100 nM CRF, 5 min): abolished phosphorylation of ERK1/2 | inhibition at 0.1 µM ([2]; Homo sapiens, COS-7, 100 nM AG1478, 30 min pretreatment, 100 nM CRF, 5 min, read-out: inhibition of CRF-induced maximal ERK1/2 phosphorylation): ~80%

Compound: CNC(=O)[C@H](Cc1c[nH]c2ccccc12)NC(=O)[C@@H](CC(=O)NO)CC(C)C [GM6001]
effect on EGF-induced ERK1/2 phosphorylation [3]: significantly attenuated ERK1/2 phosphorylation induced by PMA but not EGF | effect on basal and CRF-stimulated ERK1/2 phosphorylation ([2]; GM6001 0–20 μM, 30 min pretreatment, 100 nM CRF, 5 min): not altered | effect on PMA-induced ERK1/2 phosphorylation [4]: significantly attenuated ERK1/2 phosphorylation induced by PMA

Compound: O=c1cc(N2CCOCC2)oc2c(-c3ccccc3)cccc12 [LY294002]
effect on CRF1R-mediated Akt signaling activation ([1]; LY294002 10 μM, 30 min pretreatment): abolished CRF1R-mediated Akt signaling activation | effect on CRF-stimulated phosphorylation of ERK1/2 ([2]; LY294002 pretreatment (discussion)): inhibited CRF-stimulated phosphorylation of ERK1/2 and Akt

Compound: Nc1ncnc2c1ncn2[C@@H]1O[C@@H]2COP(O)(=S)O[C@H]2[C@H]1O (some centres unmarked) [Rp-cAMP]
effect on CRF-stimulated ERK1/2 activation ([2]; Rp-cAMP 0–100 μM, 30 min pretreatment, 100 nM CRF, 5 min): the magnitude of CRF1R-mediated activation of ERK1/2 was similar

Compound: CNC(=O)[C@H](Cc1ccccc1)NC(=O)[C@H](CC(C)C)[C@H](CSc1cccs1)C(=O)NO [batimastat]
effect on basal and CRF-stimulated ERK1/2 phosphorylation ([2]; batimastat 5 μM, 30 min pretreatment, 100 nM CRF, 5 min): not altered

Compound: EGF: epidermal growth factor
persistence of ERK1/2 phosphorylation ([5]; 10 ng/ml EGF): at least 30 min | EC50 for EGF-induced ERK1/2 phosphorylation ([5]; EGF 0–100 ng/ml, 10 min): 0.23 ng/mL

fold increase of co-precipitated Src over control (100 nM CRF, 10 min, against unstimulated cells) [6]: 8 fold
Compound: c-Src (enzyme)

Compound: dn-Akt: plasmid pUSEamp encoding dominant-negative Akt-K179M
effect on ERK1/2 activation by CRF ([2]; dn-Akt (K179M) co-transfection, 100 nM CRF): had no significant effect on ERK1/2 activation after stimulation with CRF

EC50 of EGF-induced ERK1/2 phosphorylation, COS-7 cells (endogenous EGFR), EGF 0-100 ng/ml for 10 min, immunoblot densitometry [7]: 0.23 ng/mL
Compound: epidermal growth factor (from UniProt P01133 971-1023) (ligand)

fold increase of co-precipitated EGFR over control (100 nM CRF, 10 min, against unstimulated cells) [6]: 2.5 fold
Compound: epidermal growth factor receptor
